Test results published in patent US20230054976A1, “METHODS FOR INHIBITION OF ALPHA-SYNUCLEIN mRNA USING SMALL MOLECULES” (The Scripps Research Institute, priority 2019, published 2023).

What was measured:
[1] = test system: 2-AP labeled SNCA IRE RNA; test: 2-AP emission assay; type: binding, human; conditions: decrease of 2-AP emission
Procedure: 2-AP emission assay. One μM 2-AP labeled SNCA IRE RNA was folded by heating to 65° C. for 5 min in 1× Assay Buffer and slowly cooling to room temperature. Bovine serum albumin (BSA) was then added to the RNA solution to 40 μg/mL. After adding Synucleozid to RNA solution at a final concentration […] of 100 μM, serial dilutions were prepared using 1× Assay Buffer including BSA supplemented with folded one μM 2-AP labeled SNCA IRE RNA. The solutions were incubated at room temperature for 30 min in dark and transferred into wells of black 384-well half area plates (Greiner). Fluorescence intensity was measured at room temperature with Tecan plate reader (Gain: 100, Integration time: 40 μs). Fluorescence excitation and emission wavelengths were set at 310 and 380 nm. The change of 2-AP fluorescence intensity as a function of Synucleozid concentration was fit to Eq. (1):
EC50 was calculated from Eq. (1).

SH-SY5Y cells = test: LDH release cytotoxicity assay; type: cell-based, human; conditions: 0.25, 0.5 and 1 μM, 48 h
Procedure: To assess if Synucleozid has a cytotoxic effect, SH-SY5Y cells were treated with 0.25, 0.5 and 1 μM for 48 h, and cell viability and cytotoxicity were measured using CellTiter 96 Aqueous One Solution Cell Proliferation Assay (MTS) and LDH release assay, respectively, according to the manufacturers' instructions.

[2] = test system: wild type A bulge IRE RNA; test: Thermal melting experiment, wild type IRE
Procedure: Thermal melting experiment. […] The RNA was heated to 65° C. and slowly cooled to room temperature. […] The absorbance of solution was monitored at 260 nm by a Beckman Coulter DU 800 Spectrophotometer. Background of buffer or buffer plus compound was subtracted from the signal. Resulted melting curves were fitted with MeltWin v3.5 to determine ΔG°, ΔH°, ΔS°, and Tm. The melting temperature was compared to the first derivative value from the raw data for similarity.

SNCA 5′ UTR = test: Luciferase reporter assay, SNCA 5′ UTR, SH-SY5Y cells; type: cell-based, human
[3] = test system: RNA-12 (fully base paired RNA); test: Competitive binding assay (2-AP), RNA-12
Procedure: (§1) I and I0 are the observed fluorescence intensity in the presence and absence of 2-AP RNA. Δε is the difference between the fluorescence intensity in the absence and presence of infinite 2-AP RNA. […] EC50 was calculated from Eq. (1). […] The change of fluorescence intensity was fit to Eq. (2):
(§2) θ is the percentage of 2-AP RNA bound. [RNA] is the concentration of 2-AP RNA. EC50 is the EC50 of Synucleozid determined in the assay above. [Synucleozid] is the concentration of Synucleozid. Cc is the concentration of competitive RNA. Kd is competitive dissociation constant and A is a constant.

[4] = target: unlabeled SNCA IRE RNA (RNA-0); test: Competitive binding assay (2-AP), RNA-0; conditions: read-out: competitive Kd; RNA-0, native SNCA IRE
Procedure: as §1, §2

SNCA mRNA = test: Polysome profiling; type: cell-based, human; conditions: 1 μM, 48 h
Procedure: Polysome profiling. Polysome profiling studies were completed similarly to previously described methods (9, 10). SH-SY5Y cells were treated with DMSO vehicle or Synucleozid (1 μM) at 50% confluency. After 48 h, 100 μg/mL (final concentration) cycloheximide (CHX) was added to dishes, and cells were incubated at 37° C. for 10 min. After two times washing with ice-cold 1×DPBS supplemented with 100 μg/mL CHX, cells were scraped with ice-cold 300 μL 1×DPBS supplemented with 100 μg/mL CHX. Three 100 mm dishes of cells were prepared and combined as one profiling sample. After centrifugation, cell pellets were lysed with 250 μL of ice-cold polysome extraction buffer [10 mM NaCl, 10 mM MgCl2, 10 mM Tris, pH 7.5, 1% Triton X-100, 1% sodium deoxycholate, 1 mM DTT supplemented with […] and 0.2 U/μL RNasin (Promega)]. The lysate was transferred to an ice-cold Eppendorf tube, gently vortexed and centrifuged for 15 min at 13,200 rpm, 4° C. The supernatant was layered onto 10 mL linear 10-50% sucrose gradients containing 20 mM HEPES (pH 7.4), 5 mM MgCl2, 100 mM KCl, […], and 100 µg/mL CHX. The sucrose gradients were centrifuged at 40,000 rpm for 2 h at 4° C. then fractionated using a fraction collector (Brandel Inc.). The absorbance of cytosolic RNA was recorded at 254 nm by an inline UV monitor. A 400 μL aliquot from each fraction was collected. Then, RNA extraction, cDNA synthesis and RT-qPCR were performed as described above.

[5] = test system: control plasmid lacking 5′ UTR; test: In vitro translation assay, control lacking 5′ UTR; type: biochemical
Procedure: Luciferase assay. The effect of Synucleozid treatment on translation from various IRE containing transcripts was determined using luciferase reporter assay. SH-SY5Y cells stably expressing 5' UTR were treated with Synucleozid for 48 h, washed with PBS and lysed with Passive Lysis Buffer for 15 min at room temperature. Luciferase reporter activity in each lysate was monitored using the dual luciferase reporter assay system kit (Promega. Madison, Wis., USA) according to the manufacturer's instructions. Luminescence from firefly luciferase reaction was measured using a microplate luminometer (Wallac 1420, Perkin Elmer) at 485 nm excitation and 535 nm emission wavelengths. Firefly luciferase reaction was then quenched by adding Stop & Glo reagent, and the internal fluorescence from GFP measured at the same setting was used to normalize luciferase expression. Luciferase reporter activity was expressed as percent change compared to the respective vehicle-treated control cells. In vitro translation assay. The mRNA template for in vitro translational assays was transcribed from the pIRES-Luc-EGFP-puro and pCDH-α-syn-5'-UTR-Luc-EGFP-puro plasmids by using an in vitro transcription system (RiboMax, Promega) with forward primer: [NT] and reverse primer: [NT]. […] Translation proceeded at 30° C. for 90 min, and then luminescence was measured with a Biomek FLx800 plate reader (1.0 s integration time).

[6] = test system: SNCA IRE dually labeled with Cy3 and Cy5; test: FRET-based ASO-Bind-Map; type: binding, human; conditions: 1 μM, ASO 500 nM
Procedure: FRET-based ASO-Bind-Map. The SNCA IRE dually labeled with Cy3 and Cy5 dyes (100 nM) was folded by heating at 65° C. for 5 min in 1× Assay Buffer and slowly cooling to room temperature. BSA was added to the RNA solutions to a final concentration of 40 μg/mL followed by addition of compound. The mixtures were incubated at room temperature for 30 min. Fluorescence spectra were then acquired as a function of time (in kinetics mode) for 20 min using a Cary Eclips fluorescence spectrophotometer, with excitation and emission wavelengths of 532/10 nm and 668/5 nm, respectively. The ASO of interest was then added to a final concentration of 500 nM, and fluorescence spectra were acquired as described above.

SMILES: N=C(N)c1ccc(Nc2ccc(-c3cc4ccc(C(=N)N)cc4[nH]3)cc2)cc1 [Synucleozid A]
- EC50 [1]: 2720 ± 370 nM
- EC50 ([1]; listed as Synucleozid): 2700 ± 400 nM
- LDH release (cytotoxicity) (SH-SY5Y cells): no toxicity
- LDH release (cytotoxicity) (SH-SY5Y cells; listed as Synucleozid): no effect
- increase of Tm of wild type IRE [2]: 3 °C
- Tm of wild type IRE in presence of Synucleozid ([2]; from 51.4 without compound): 54.8 °C
- ΔG37° of wild type IRE in presence of Synucleozid ([2]; from −2.91 without compound): -3.23 kcal/mol
- inhibition of translation, luciferase fused to SNCA 5′ UTR (SNCA 5′ UTR; 250 nM): ~10%
- inhibition of translation, luciferase fused to SNCA 5′ UTR (SNCA 5′ UTR; 1 μM): ~40%
- competitor RNA concentration needed for recovery of 2-AP emission [3]: > 100 µM
- Kd [4]: 1500 ± 300 nM
- association of ribosomes with a control RNA (SNCA mRNA): does not affect
- decrease of SNCA mRNA associated with active polysomes (SNCA mRNA; SH-SY5Y cells): ~20%
- SNCA mRNA associated with incomplete ribosomes (SNCA mRNA; fractions 1-5): increase
- inhibitory effect on construct lacking SNCA 5′ UTR [5]: No inhibitory effect
- reduction of ASO-induced unfolding (FRET) [6]: only able to reduce the extent of unfolding induced by ASO(1-10) and ASO(40-50)
